Data on 26 molecules can be found in article PMC9502202, “Discovery of Novel Potential Aphid Repellents: Geranic Acid Esters Containing Substituted Aromatic Rings” (Molecules, 2022).

In this assay the test system is Acyrthosiphon pisum (A. pisum). The experiment in a line: Repellent activity test, glass two-way olfactometer. The assay is classed as in vivo. Conditions: 0.25 h, wingless A. pisum, 2.5 µL of 2000 mg/L test solution in n-hexane on filter paper, 15 min, RP = (C − T)/(C + T) × 100%, mean ± standard deviation, read-out: RP (%) repellency proportion. Here is the method:
The behavioral response of A. pisum to 5a-5x was investigated with a glass two-way olfactometer, and the aphid-repellent activity was carried out according to our previously published method. The aphids were reared in a growth chamber (at 23 ± 1 °C, with a […]:8D photoperiod and 70% relative humidity) at China Agricultural University. The compounds were weighed, dissolved in n-hexane, and prepared into a test solution with a concentration of 2000 mg/L using n-hexane as a blank control. About 20 wingless A. pisum were placed through the release port and each arm was pumped with 0.2 L/min of activated carbon and distilled water. One arm was chosen as the “treatment” (T) arm and another was the “control” (C) arm. For the “T” arm, 2.5 μL of test solutions were applied to filter paper strips (1 cm^2 diameter), and 2.5 μL of n-hexane was applied for the “C” arm. The number of aphids in each direction was recorded for 15 min at 2 cm from the center of the horizontal arm. The olfactometer was washed with ethanol, the filter paper was replaced, and the two arms were switched and the experiment was repeated four times for each treatment. The repellent activity was evaluated using RP as the formula RP = (C - T)/(C+T) × 100%, where T and C mean the number of aphids in the treatment and control arm, respectively. The RP values of the derivatives were statistically analyzed with SPSS 24.0 (SPSS Inc., Chicago, IL, USA) using a one-way analysis of variance (ANOVA), followed by a Duncan's test with a significance set at p < 0.05.

Structures are written as SMILES.

Take `CC(C)=CCC/C(C)=C/C(=O)Oc1ccccc1` [5a]: the pest or weed control at 2000 µg/mL was found to be 38.1 ± 2.38%.
Under `CC(C)=CCC/C(C)=C/C(=O)Oc1ccccc1C` [5b, 2-tolyl (E)-3,7-dimethylocta-2,6-dienoate] stands 35.2 ± 2.65%; under `CC(C)=CCC/C(C)=C/C(=O)Oc1cccc(C)c1` [5c, 3-tolyl (E)-3,7-dimethylocta-2,6-dienoate], 39.8 ± 1.95%; under `CC(C)=CCC/C(C)=C/C(=O)Oc1ccc(C)cc1` [5d, 4-tolyl (E)-3,7-dimethylocta-2,6-dienoate], 38.7 ± 2.75%.
In the case of `COc1ccccc1OC(=O)/C=C(\C)CCC=C(C)C` [5e, 2-methoxyphenyl (E)-3,7-dimethylocta-2,6-dienoate], the pest or weed control at 2000 µg/mL was found to be 37.4 ± 2.08%.
The same measure for `COc1cccc(OC(=O)/C=C(\C)CCC=C(C)C)c1` [5f, 3-methoxyphenyl (E)-3,7-dimethylocta-2,6-dienoate]: 55.6%; for `COc1ccc(OC(=O)/C=C(\C)CCC=C(C)C)cc1` [5g, 4-methoxyphenyl (E)-3,7-dimethylocta-2,6-dienoate]: 43.6 ± 3.09%.
Under `CC(C)=CCC/C(C)=C/C(=O)Oc1ccccc1Cl` [5h, 2-chlorophenyl (E)-3,7-dimethylocta-2,6-dienoate] stands 31.8 ± 1.31%; under `CC(C)=CCC/C(C)=C/C(=O)Oc1cccc(Cl)c1` [5i, 3-chlorophenyl (E)-3,7-dimethylocta-2,6-dienoate], 51.4 ± 1.2%.
On to `CC(C)=CCC/C(C)=C/C(=O)Oc1ccc(Cl)cc1` [5j, 4-chlorophenyl (E)-3,7-dimethylocta-2,6-dienoate], for which the pest or weed control at 2000 µg/mL stood at 38.7 ± 2.75%.
As for `CC(C)=CCC/C(C)=C/C(=O)Oc1ccccc1F` [5k, 2-fluorophenyl (E)-3,7-dimethylocta-2,6-dienoate], the pest or weed control at 2000 µg/mL came out at 28.8 ± 1.31%.
Consider `CC(C)=CCC/C(C)=C/C(=O)Oc1cccc(F)c1` [5l, 3-fluorophenyl (E)-3,7-dimethylocta-2,6-dienoate], for which the pest or weed control at 2000 µg/mL turned out to be 34.9 ± 3.3%.
Under `CC(C)=CCC/C(C)=C/C(=O)Oc1ccc(F)cc1` [5m, 4-fluorophenyl (E)-3,7-dimethylocta-2,6-dienoate] stands 27.9 ± 2.85%; under `CC(C)=CCC/C(C)=C/C(=O)Oc1ccccc1[N+](=O)[O-]` [5n, 2-nitrophenyl (E)-3,7-dimethylocta-2,6-dienoate], 23.4 ± 2.35%.
The same measure for `CC(C)=CCC/C(C)=C/C(=O)Oc1cccc([N+](=O)[O-])c1` [5o, 3-nitrophenyl (E)-3,7-dimethylocta-2,6-dienoate]: 41.5 ± 1.49%; for `CC(C)=CCC/C(C)=C/C(=O)Oc1ccc([N+](=O)[O-])cc1` [5p, 4-nitrophenyl (E)-3,7-dimethylocta-2,6-dienoate]: 39.8 ± 1.95%.
The same measure for `CC(C)=CCC/C(C)=C/C(=O)Oc1ccccc1Br` [5q, 2-bromophenyl (E)-3,7-dimethylocta-2,6-dienoate]: 42.7 ± 1.36%; for `CC(C)=CCC/C(C)=C/C(=O)Oc1cccc(Br)c1` [5r, 3-bromophenyl (E)-3,7-dimethylocta-2,6-dienoate]: 51.2 ± 1.94%; for `CC(C)=CCC/C(C)=C/C(=O)Oc1ccc(Br)cc1` [5s, 4-bromophenyl (E)-3,7-dimethylocta-2,6-dienoate]: 43.4%.
For the molecule `CC(C)=CCC/C(C)=C/C(=O)Oc1ccccc1OC(F)(F)F` [5t, 2-(trifluoromethoxy)phenyl (E)-3,7-dimethylocta-2,6-dienoate], the pest or weed control at 2000 µg/mL was found to be 28.2 ± 1.55%.
The same measure for `CC(C)=CCC/C(C)=C/C(=O)Oc1cccc(OC(F)(F)F)c1` [5u, 3-(trifluoromethoxy)phenyl (E)-3,7-dimethylocta-2,6-dienoate]: 38 ± 2.54%; for `CC(C)=CCC/C(C)=C/C(=O)Oc1ccc(OC(F)(F)F)cc1` [5v, 4-(trifluoromethoxy)phenyl (E)-3,7-dimethylocta-2,6-dienoate]: 24.9 ± 2.52%.
Take `CC(C)=CCC/C(C)=C/C(=O)Oc1c(F)cccc1F` [5w, 2,6-difluorophenyl (E)-3,7-dimethylocta-2,6-dienoate]: the pest or weed control at 2000 µg/mL turned out to be 36.7%.
In the case of `CC(C)=CCC/C(C)=C/C(=O)Oc1c(Br)cccc1Br` [5x, 2,6-dibromophenyl (E)-3,7-dimethylocta-2,6-dienoate], the pest or weed control at 2000 µg/mL was determined as 43.9 ± 2.09%.
Under `CC(C)=CCC/C(C)=C/COC(=O)c1ccc(Br)cc1` [CAU14, reference compound] stands 33.5%; under `CC(C)=CCC/C(C)=C/COC(=O)c1c(F)cccc1F` [CAU15, reference compound], 18.3%.
